42 molecules from patent EP3262036B1, “THERAPEUTIC PYRIDAZINE COMPOUNDS AND USES THEREOF” (priority 2015, dated 2016) can be followed below.

The assay has as its target BRG1 (Homo sapiens, UniProt P51532). The assay is described as follows: biochemical. It counts as binding. Conditions: BRG1 HTRF IC50 (µM). The source says:
IC50 measurements for inhibitors using BRG1 TR-FRET Binding Assay
On the technique in general: TR-FRET usually uses a lanthanide donor and a delayed reading to cut background.

BRG1, sequence (P51532 1448-1575): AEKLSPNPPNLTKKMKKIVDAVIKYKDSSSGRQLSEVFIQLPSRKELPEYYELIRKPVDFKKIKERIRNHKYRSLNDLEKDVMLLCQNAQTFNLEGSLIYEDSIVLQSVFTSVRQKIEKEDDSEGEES

Take `CN(C)CC1(O)CCN(c2cc(-c3ccccc3O)nnc2N)CC1` [Example 31, 1-(3-amino-6-(2-hydroxyphenyl)pyridazin-4-yl)-4-((dimethylamino)methyl) piperidin-4-ol]: the concentration for half-maximal inhibition (IC50) (as a rule, the concentration that inhibits the measured activity by half) came out at 0.0208 µM.
As for `CN(CCc1ccccc1)c1cc(-c2ccccc2O)nnc1N` [Example 36, 2-(6-amino-5-(methyl(phenethyl)amino)pyridazin-3-yl)phenol], the figure is 0.0962 µM; as for `CC1CN(c2cc(-c3ccccc3O)nnc2N)CC(C)N1Cc1ccccc1` (stereo not drawn) [Example 37, 2-(6-amino-5-(4-benzyl-3,5-dimethylpiperazin-1 - yl)pyridazin-3-yl)phenol], 0.102 µM; as for `Nc1nnc(-c2ccccc2O)cc1N1CCC(O)C1` (stereo not drawn) [Example 38, 1-(3-amino-6-(2-hydroxyphenyl)pyridazin-4-yl)pyrrolidin-3-ol], 0.0921 µM.
As for `Nc1nnc(-c2ccccc2O)cc1N1CCC(O)(Cc2ccccc2)C1` (stereo not drawn) [Example 39, 1-(3-amino-6-(2-hydroxyphenyl)pyridazin-4-yl)-3-benzylpyrrolidin-3-ol], the figure is 0.113 µM.
As for `COC1(Cc2ccccc2)CCN(c2cc(-c3ccccc3O)nnc2N)C1` (stereo not drawn) [Example 40, 2-(6-amino-5-(3-benzyl-3-methoxypyrrolidin-1-yl)pyridazin-3-yl)phenol], the figure is 0.0794 µM.
For `Nc1nnc(-c2ccccc2O)cc1N1CC2CC1CN2c1ccccn1` (stereo not drawn) [Example 41, 2-(6-amino-5-(5-(pyridin-2-yl)-2,5-diazabicyclo[2.2.1]heptan-2-yl)pyridazin-3-yl)phenol], the 50% inhibitory concentration (IC50) worked out at 0.0282 µM.
As for `Nc1nnc(-c2ccccc2O)cc1N1CCC(O)(c2ccccc2)CC1` [Example 42, 1-(3-amino-6-(2-hydroxyphenyl)pyridazin-4-yl)-4-phenylpiperidin-4-ol], the figure is 0.0113 µM; as for `Nc1nnc(-c2ccccc2O)cc1N1CC2CCC(C1)N2c1cncnc1` [Example 43, 2-(6-amino-5-(8-(pyrimidin-5-yl)-3,8-diazabicyclo[3.2.1]octan-3-yl)pyridazin-3-yl)phenol], 0.0193 µM; as for `CC1CN(c2cc(-c3ccccc3O)nnc2N)CCC1(O)c1ccccc1` (stereo not drawn) [Example 44, 1-(3-amino-6-(2-hydroxyphenyl)pyridazin-4-yl)-3-methyl-4-phenylpiperidin-4-ol], 0.0253 µM.
Molecule `Nc1nnc(-c2ccccc2O)cc1N1CCS(=O)(=O)CC1` [Example 46, 4-(3-amino-6-(2-hydroxyphenyl)pyridazin-4-yl)thiomorpholine 1,1-dioxide] returned an IC50 of 0.414 µM.
As for `Cn1cc(N2C3CCC2CN(c2cc(-c4ccccc4O)nnc2N)C3)cn1` [Example 48, 2-(6-amino-5-(8-(1-methyl-1H-pyrazol-4-yl)-3,8-diazabicyclo[3.2.1]octan-3-yl)pyridazin-3-yl)phenol], the figure is 0.0309 µM; as for `Nc1nnc(-c2ccccc2O)cc1N1CCNC(Cc2ccccc2)C1` (stereo not drawn) [Example 49, 2-(6-amino-5-(3-benzylpiperazin-1-yl)pyridazin-3-yl)phenol], 0.0848 µM.
`Nc1nnc(-c2ccccc2O)cc1N1CC2CCC(C1)N2c1cnccn1` [Example 50, 2-(6-amino-5-(8-(pyrazin-2-yl)-3,8-diazabicyclo[3.2.1]octan-3-yl)pyridazin-3-yl)phenol] came in with an IC50 of 0.0106 µM.
The molecule `Nc1nnc(-c2ccccc2O)cc1N1CCc2[nH]ncc2C1` [Example 52, 2-(6-amino-5-(1,4,6,7-tetrahydro-5H-pyrazolo[4,3-c]pyridin-5-yl)pyridazin-3-yl)phenol] registered a concentration for half-maximal inhibition (IC50) of 0.128 µM.
For the molecule `Nc1nnc(-c2ccccc2O)cc1N1CCNC(=O)C1` [Example 53, 4-(3-amino-6-(2-hydroxyphenyl)pyridazin-4-yl)piperazin-2-one], the IC50 worked out at 0.316 µM.
The figure for `Nc1nnc(-c2ccccc2O)cc1N1CCC(c2ccccc2)C1` (stereo not drawn) [Example 55, 2-(6-amino-5-(3-phenylpyrrolidin-1-yl)pyridazin-3-yl)phenol] is 0.123 µM; for `Nc1nnc(-c2ccccc2O)cc1N1CC(OCc2ccccc2)C1` [Example 58, 2-(6-amino-5-(3-(benzyloxy)azetidin-1-yl)pyridazin-3-yl)phenol] it is 0.0252 µM; for `Nc1nnc(-c2ccccc2O)cc1N1CCCC(O)(c2ccccc2)C1` (stereo not drawn) [Example 59, 1-(3-amino-6-(2-hydroxyphenyl)pyridazin-4-yl)-3-phenylpiperidin-3-ol] it is 0.0158 µM.
The figure for `C[C@@H](C1CCN(c2cc(-c3ccccc3O)nnc2N)CC1)N(C)C` [Example 60, (S)-2-(6-amino-5-(4-(1-(dimethylamino)ethyl)piperidin-1-yl)pyridazin-3-yl)phenol] is 0.0247 µM; for `Nc1nnc(-c2ccccc2O)cc1N1CCN(C(=O)c2ccccc2)CC1` [Example 61, (4-(3-amino-6-(2-hydroxyphenyl)pyridazin-4-yl)piperazin-1-yl)(phenyl)methanone] it is 0.0348 µM; for `CC1CN(c2cc(-c3ccccc3O)nnc2N)CCN1C(=O)c1ccccc1` (stereo not drawn) [Example 62, (4-(3-amino-6-(2-hydroxyphenyl)pyridazin-4-yl)-2-methylpiperazin-1-yl)(phenyl)methanone] it is 0.0117 µM.
As for `Nc1nnc(-c2ccccc2O)cc1N1CCN(c2ccccc2)C(=O)C1` [Example 64, 4-(3-amino-6-(2-hydroxyphenyl)pyridazin-4-yl)-1-phenylpiperazin-2-one], the figure is 0.208 µM.
With `C[C@H](C1CCN(c2cc(-c3ccccc3O)nnc2N)CC1)N(C)C` [Example 65, (R)-2-(6-amino-5-(4-(1-(dimethylamino)ethyl)piperidin-1-yl)pyridazin-3-yl)phenol], the IC50 turned out to be 0.0276 µM.
`CC(=O)N1C2CCC1CN(c1cc(-c3ccccc3O)nnc1N)C2` [Example 66, 1-(3-(3-amino-6-(2-hydroxyphenyl)pyridazin-4-yl)-3,8-diazabicyclo[3.2.1]octan-8-yl)ethan-1-one] showed an IC50 of 0.0713 µM.
As for `CS(=O)(=O)N1C2CCC1CN(c1cc(-c3ccccc3O)nnc1N)C2` [Example 67, 2-(6-amino-5-(8-(methylsulfonyl)-3,8-diazabicyclo[3.2.1]octan-3-yl)pyridazin-3-yl)phenol], the figure is 0.0294 µM; as for `Cn1cc(N2CCN(c3cc(-c4ccccc4O)nnc3N)CC2)cn1` [Example 68, 2-(6-amino-5-(4-(1-methyl-1H-pyrazol-4-yl)piperazin-1-yl)pyridazin-3-yl)phenol], 0.0367 µM.
The figure for `NC(=O)C1CCN(c2cc(-c3ccccc3O)nnc2N)CC1` [Example 73, 1-(3-amino-6-(2-hydroxyphenyl)pyridazin-4-yl)piperidine-4-carboxamide] is 0.0824 µM; for `Nc1nnc(-c2ccccc2O)cc1N1C[C@H]2C[C@@H]1CN2c1ccccn1` [Example 74, 2-(6-amino-5-((1R,4R)-5-(pyridin-2-yl)-2,5-diazabicyclo[2.2.1]heptan-2-yl)pyridazin-3-yl)phenol] it is 0.0106 µM.
The figure for `Nc1nnc(-c2ccccc2O)cc1N1CCC2(CC1)C(=O)Nc1ccccc12` [Example 78, 1'-(3-amino-6-(2-hydroxyphenyl)pyridazin-4-yl)spiro[indoline-3,4'-piperidin]-2-one] is 0.0758 µM; for `CNC(=O)CN1C2CCC1CN(c1cc(-c3ccccc3O)nnc1N)C2` [Example 79, 2-(3-(3-amino-6-(2-hydroxyphenyl)pyridazin-4-yl)-3,8-diazabicyclo[3.2.1]octan-8-yl)-N-methylacetamide] it is 0.139 µM.
As for `Nc1nnc(-c2ccccc2O)cc1N1CC2CCC(C1)N2c1ccc(C(=O)O)nc1` [Example 88, 5-(3-(3-amino-6-(2-hydroxyphenyl)pyridazin-4-yl)-3,8-diazabicyclo[3.2.1]octan-8-yl)picolinic acid], the IC50 was determined as 0.218 µM.
In turn, `CN(C)C1CCN(c2cc(-c3ccccc3O)nnc2N)CC1` [Example 91, 2-[6-amino-5-[4-(dimethylamino)-1-piperidyl]pyridazin-3-yl]phenol] came in with a half-maximal inhibitory concentration (IC50) of 0.0929 µM.
Turning to `C[C@H]1CN(c2cc(-c3ccccc3O)nnc2N)CCN1Cc1nccn1C` [Example 92, (S)-2-(6-amino-5-(3-methyl-4-((1-methyl-1H-imidazol-2-yl)methyl)piperazin-1-yl)pyridazin-3-yl)phenol], it took 0.0185 µM to reach half-maximal inhibition (IC50).
As for `C[C@@H]1CN(c2cc(-c3ccccc3O)nnc2N)CCN1Cc1nccn1C` [Example 93, (R)-2-(6-amino-5-(3-methyl-4-((1-methyl-1H-imidazol-2-yl)methyl)piperazin-1-yl)pyridazin-3-yl)phenol], the figure is 0.0238 µM; as for `CC(C)n1cc(CN2CCN(c3cc(-c4ccccc4O)nnc3N)CC2)cn1` [Example 94, 2-[6-amino-5-[4-[(1-isopropylpyrazol-4-yl)methyl]piperazin-1-yl]pyridazin-3-yl]phenol], 0.122 µM; as for `N#Cc1cccc(CN2CCN(c3cc(-c4ccccc4O)nnc3N)CC2)c1` [Example 96, 3-[[4-[3-amino-6-(2-hydroxyphenyl)pyridazin-4-yl]piperazin-1-yl]methyl]benzonitrile], 0.0569 µM.
`Nc1nnc(-c2ccccc2O)cc1N1CCN(Cc2ncco2)CC1` [Example 97, 2-[6-amino-5-[4-(oxazol-2-ylmethyl)piperazin-1-yl]pyridazin-3-yl]phenol] registered an IC50 of 0.0714 µM.
The figure for `Nc1nnc(-c2ccccc2O)cc1N1CCN(Cc2ccncc2)CC1` [Example 98, 2-[6-amino-5-[4-(4-pyridylmethyl)piperazin-1-yl]pyridazin-3-yl]phenol] is 0.0796 µM.
As for `Cn1ccnc1CN1CCN(c2cc(-c3ccccc3O)nnc2N)CC1` [Example 99, 2-[6-amino-5-[4-[(1-methylimidazol-2-yl)methyl]piperazin-1-yl]pyridazin-3-yl]phenol], the figure is 0.0324 µM.
As for `Cc1cc(CN2CCN(c3cc(-c4ccccc4O)nnc3N)CC2)no1` [Example 101, 2-[6-amino-5-[4-[(5-methylisoxazol-3-yl)methyl]piperazin-1-yl]pyridazin-3-yl]phenol], the figure is 0.0653 µM; as for `Nc1nnc(-c2ccccc2O)cc1N1CCN(Cc2n[nH]c3ccccc23)CC1` [Example 102, 2-[6-amino-5-[4-(1H-indazol-3-ylmethyl)piperazin-1-yl]pyridazin-3-yl]phenol], 0.0259 µM.
